The record followed here is patent US20090018118A1, “HETEROCYCLIC COMPOUNDS” (priority 2005, published 2009).

Structures can show the parent of a compound that is named as a salt. Where two headings read alike, the source gives them in different places.

For this experiment, the system named is cholesterol biosynthesis in HepG2 cells. Briefly: Metabolic labeling of HepG2 cells with [3H]acetate; radio-HPLC sterol profile (inhibition of cholesterol biosynthesis). As to conditions: for activity at 10 µM: Homo sapiens, 24 h, Table I, sterol level normalized to normal medium (1.00), mean of 4 experiments; for activity at 10 µM / FF-MAS / cholesterol / desmosterol / lanosterol / lathosterol / zymosterol+7-dehydrocholesterol: 10 μM compound; for FF-MAS / cholesterol / desmosterol / lanosterol / lathosterol / zymosterol+7-dehydrocholesterol: Table II (arranged by sterol profile), normalized to normal medium (1.00); for all sterol levels (in words): relative to normal medium (unity). The experiment is classed as cell-based, human. How it is done:
In accordance with the aims of the invention, the effect of the novel compounds on inhibition of cholesterol biosynthesis is assessed. An ex vivo method of metabolic labeling of immortal human hepatocytes is employed. The radioactively labeled early precursor of cholesterol [3H]acetate is added to cells with or without addition of an active new compound.
An ex vivo method of metabolic labeling of immortal human hepatocytes is employed. The radioactively labeled early precursor of cholesterol [3H]acetate is added to cells with or without addition of an active compound.
Cell culture incubation with potential inhibitors of cholesterol biosynthesis and statins Human hepatoma cell line (HepG2-ATCC No. HB-8065) is split in the recommended ratio (1:2-3) into 75 cm^2 cell flasks using two flasks per experimental condition. Cells are incubated at 37° C. with 5% CO2 in Dulbeco's modified Eagle medium (DMEM high (Sigma)) containing 5% calf serum (Sigma) and 1% L-glutamine (Sigma). After 24-hours-culturing in the growth medium, the medium is replaced with the one supplemented with 10 μM concentration of a LK compound, potential inhibitor of cholesterol biosynthesis. 10 μM solution of atorvastatin, inhibitor of HMG-CoA reductase, serves as a positive control.
After 24 hours the growth medium is changed and [^3H]acetate (NEN™ Life Science Products) added in a concentration of 40 μCi per ml of the medium (400 μCi per flask). After 4 hours cells are harvested using 2 ml of trypsin (Sigma) and the cell pellet is resuspended in 1 ml of distilled water. Cells are homogenized using the freeze and thaw method. From cell homogenate sterols are extracted and protein concentration determined using the Bio-Rad reagent.
Homogenates are transferred into 4 ml glass vial and sterols are extracted in 3 ml of extraction solution (75% n-heptane: 25% isopropanol (vol./vol.)) with ergosterol as an internal standard. For better extraction 100 μl of 0.3M NaH2PO4 (pH=1.0) is added. Closed vials are vigorously shaken (1800 rpm) for 2 hours. After extraction procedure vials are centrifuged (2000 g, 10 min) and the organic phase is transferred to fresh conical glass tubes. Extraction procedure is repeated using 1 ml of extraction solution for 15 min. Organic phases are pooled. Primary extracts are dried in vacuum centrifuge, redissolved in 3 ml of n-heptane, and incubated for 10 min at room temperature with mild shaking. After centrifugation (10 min, 2000 g) extracts are transferred into fresh glass tubes and stored in dark and cold.
The organic phase is dried, reconstituted in mobile phase for reversed phase HPLC separation and loaded onto a-HPLC column, Prism-RPN, 5 μm, 250×4,6 mm running in 100% acetonitrile at 1.00 ml/min at 40° C. temperature. Scintillation liquid is added after UV detection at 30 ml/h, at room temperature, to evaluate tritium labeled sterols on a radio detector.
Sterols are determined by comparing the eluted peaks with runs of commercial standards of lanosterol, ergosterol, desmosterol, zymosterol, 7-dehydrocholesterol, lathosterol and cholesterol or laboratory standards (FF-MAS-4,4-Dimethylcholesta-8(9),14,24-triene-3β-ol- and T-MAS-4,4-Dimethylcholesta8(9),24,diene-3,6-ol, Laboratory of Reproductive Biology, The Juliane Marie Center for Children, Women and Reproduction, University Hospital of Copenhagen, DK-2100 Copenhagen, Denmark). Results were normalized on ergosterol quantity and protein concentration. Results are presented as a mean from 4 separated experiments.
The influence of a 10 μM solution of novel LK-substances on cholesterol biosynthesis in the assay on HepG2 cells is presented in Table I. Compounds are arranged according to the building blocks, three of them are 2-pyridineethanols, 2-pyridineethylpiperazines and pyridinemethylpiperazines.
Normal medium pertains to cell cultures without a compound of the invention. Its sterol levels were used for normalization. 10 μM solution of atorvastatin serves as a positive control.

[1] abbreviates: HepG2, read-out: zymosterol+7-dehydrocholesterol.

`FC(F)(F)c1ccc(CN2CCN(CCc3ccccc3)CC2)cn1` [LK-9107, 1-Phenethyl-4-((6(trifluoromethyl)pyridine-3-yl)methyl)piperazine trihydrobromide]: for the setting “10 μM, HepG2, preferred profile: lowered cholesterol, no accumulation of lanosterol and post-lanosterol intermediates”, the “sterol profile (in words)” value is reported as “meets these criteria in considerable extent”. For the same compound, the activity at 10 µM (HepG2, read-out: FF-MAS) came out at 129%. The activity at 10 µM (HepG2, read-out: cholesterol) came to 0%. In addition, where the note is “HepG2, read-out: desmosterol”, the activity at 10 µM came to 0%. For the setting “HepG2, read-out: lanosterol”, the activity at 10 µM is 36%. For the setting “HepG2, read-out: lathosterol”, the activity at 10 µM is 11%. In addition, the activity at 10 µM under setting [1] was determined as 20%. Where the note is “HepG2”, this compound gave an FF-MAS of 1.29, a cholesterol of 0.00, a desmosterol of 0.00 and a lanosterol of 0.36. Also, under “HepG2”, the lathosterol came to 0.11 and the “zymosterol+7-dehydrocholesterol” value is given as 0.20.
Take `Fc1ccc(CCN2CCN(CCc3ccncc3)CC2)cc1F` [LK-9131, 1-(3,4-di-Fluorophenethyl)-4-(2-(pyridin-4-yl)ethyl)piperazine trihydrobromide]: the “all sterol levels (in words)” value (10 μM, HepG2) is “reduce all sterol levels below unity”. The activity at 10 µM (HepG2, read-out: FF-MAS) came to 72%; the activity at 10 µM (HepG2, read-out: cholesterol) was determined as 0%; the activity at 10 µM (HepG2, read-out: desmosterol) was 1%; the activity at 10 µM (HepG2, read-out: lanosterol) was found to be 69%; the activity at 10 µM (HepG2, read-out: lathosterol) was determined as 5%; the activity at 10 µM under setting [1] came out at 9%. In addition, under “HepG2”, the FF-MAS worked out at 0.72. Also, the cholesterol (HepG2) came out at 0.00. Moreover, the desmosterol (HepG2) is on record as 0.01. This compound also yielded a lanosterol (HepG2) of 0.69. For the same compound, where the note is “HepG2”, the lathosterol is given as 0.05. For the setting “HepG2”, the “zymosterol+7-dehydrocholesterol” value is reported as 0.09.
With `CC(C)c1c(C(=O)Nc2ccccc2)c(-c2ccccc2)c(-c2ccc(F)cc2)n1CC[C@@H](O)C[C@@H](O)CC(=O)O` [atorvastatin, reference compound], the “de novo cholesterol biosynthesis (in words)” value (10 μM, HepG2, radio-HPLC chromatograms) is “complete suppression of cholesterol biosynthesis as well as cholesterol precursors”. In addition, the activity at 10 µM is, setting by setting: (HepG2, read-out: FF-MAS) 0%; (HepG2, read-out: cholesterol) 0%; (HepG2, read-out: desmosterol) 0%; (HepG2, read-out: lanosterol) 0%; (HepG2, read-out: lathosterol) 0%; under setting [1], 0%. For the setting “HepG2”, this compound showed an FF-MAS of 0.00. In addition, the cholesterol (HepG2) was found to be 0.00. The same compound showed a desmosterol (HepG2) of 0.00. In addition, where the note is “HepG2”, the lanosterol came out at 0.00. The lathosterol (HepG2) turned out to be 0.00. For the same compound, the “zymosterol+7-dehydrocholesterol” value (HepG2) is on record as 0.00.
Regarding `OC(CN1CCN(CCc2ccccc2)CC1)c1cccnc1` (stereo not shown) [LK-980, 2-(4-Phenethylpiperazine-1-yl)-1-(pyridine3-yl)-1-ethanol trihydrobromide], the activity at 10 µM (HepG2, read-out: FF-MAS) stood at 254%. Also, under “HepG2, read-out: cholesterol”, the activity at 10 µM is 5%. In addition, the activity at 10 µM (HepG2, read-out: desmosterol) was found to be 0%. Further, the activity at 10 µM (HepG2, read-out: lanosterol) turned out to be 96%. The activity at 10 µM (HepG2, read-out: lathosterol) came out at 49%. Also, under setting [1], the activity at 10 µM was 102%. Moreover, under “HepG2”, the FF-MAS is reported as 2.54, the cholesterol is reported as 0.05, the desmosterol was found to be 0.00 and the lanosterol stood at 0.96. Moreover, under “HepG2”, the lathosterol stood at 0.49 and the “zymosterol+7-dehydrocholesterol” value amounted to 1.02.
For the compound `Clc1ccc(CCN2CCN(CCc3ccccn3)CC2)cc1Cl` [LK-9137, 1-(3,4-Dichlorophenethyl)-4-(2-(pyridin-2-yl)ethyl)piperazine trihydrobromide], the activity at 10 µM (HepG2, read-out: FF-MAS) amounted to 142%; the activity at 10 µM (HepG2, read-out: cholesterol) came to 6%; the activity at 10 µM (HepG2, read-out: desmosterol) was found to be 22%; the activity at 10 µM (HepG2, read-out: lanosterol) was found to be 63%; the activity at 10 µM (HepG2, read-out: lathosterol) worked out at 60%; the activity at 10 µM under setting [1] stood at 141%. For the same compound, where the note is “HepG2”, the FF-MAS is reported as 1.42. The compound also showed a cholesterol (HepG2) of 0.06. Besides, the desmosterol (HepG2) is recorded as 0.22. Where the note is “HepG2”, this compound gave a lanosterol of 0.63. For the same compound, under “HepG2”, the lathosterol stood at 0.60. Moreover, under “HepG2”, the “zymosterol+7-dehydrocholesterol” value amounted to 1.41.
Regarding `OC(CN1CCN(CCc2ccccc2)CC1)c1ccncc1` (stereo not shown) [LK-9110B, 2-(4-Phenethylpiperazine-1-yl)-1-(pyridine-4-yl)ethanol], the activity at 10 µM (HepG2, read-out: FF-MAS) came to 374%. The activity at 10 µM (HepG2, read-out: cholesterol) is 0%. Also, the activity at 10 µM (HepG2, read-out: desmosterol) came out at 17%. The activity at 10 µM (HepG2, read-out: lanosterol) was determined as 96%. Moreover, under “HepG2, read-out: lathosterol”, the activity at 10 µM worked out at 78%. Further, the activity at 10 µM under setting [1] stood at 137%. In addition, under “HepG2”, the FF-MAS stood at 3.74, the cholesterol amounted to 0.00, the desmosterol is recorded as 0.17 and the lanosterol was found to be 0.96. Besides, where the note is “HepG2”, the lathosterol stood at 0.78 and the “zymosterol+7-dehydrocholesterol” value is 1.37.
Take `FC(F)(F)c1cnc(N2CCCN(CCc3ccccc3)CC2)c(Cl)c1` [LK-9115, 1-(3-Chloro-5-(trifluoromethyl)pyridine-2-yl)-4-phenethyl-1,4-diazepane trihydrobromide]: where the note is “HepG2, read-out: FF-MAS”, the activity at 10 µM turned out to be 442%. In addition, the activity at 10 µM (HepG2, read-out: cholesterol) came to 0%. Moreover, for the setting “HepG2, read-out: desmosterol”, the activity at 10 µM stood at 0%. The activity at 10 µM (HepG2, read-out: lanosterol) turned out to be 84%. Besides, the activity at 10 µM (HepG2, read-out: lathosterol) turned out to be 21%. Besides, under setting [1], the activity at 10 µM came to 91%. Besides, for the setting “HepG2”, the FF-MAS turned out to be 4.42, the cholesterol is 0.00, the desmosterol is 0.00 and the lanosterol is given as 0.84. Moreover, under “HepG2”, the lathosterol stood at 0.21 and the “zymosterol+7-dehydrocholesterol” value worked out at 0.91.
On to `Clc1ccc(CCN2CCN(CCc3ccncc3)CC2)cc1Cl` [LK-9135, 1-(3,4-Dichlorophenethyl)-4-(2-(pyridin-4-yl)ethyl)piperazine trihydrobromide], for which the “all sterol levels (in words)” value (10 μM, HepG2) is given as “reduce all sterol levels below unity”. In addition, the activity at 10 µM by setting is: (HepG2, read-out: FF-MAS) 27%; (HepG2, read-out: cholesterol) 0%; (HepG2, read-out: desmosterol) 0%; (HepG2, read-out: lanosterol) 43%; (HepG2, read-out: lathosterol) 0%; under setting [1], 2%. Where the note is “HepG2”, this compound displayed an FF-MAS of 0.27. For the same compound, the cholesterol (HepG2) is listed as 0.00. The compound further yielded a desmosterol (HepG2) of 0.00. Moreover, the lanosterol (HepG2) is recorded as 0.43. For the setting “HepG2”, this compound displayed a lathosterol of 0.00. Further, the “zymosterol+7-dehydrocholesterol” value (HepG2) is 0.02.
Consider `O=C(Cc1cccnc1)N1CCN(CCc2ccccc2)CC1` [LK-9101B, 1-(4-Phenethylpiperazin-1-yl)-2-(pyridine-3-yl)ethanone], for which the activity at 10 µM by setting is: (HepG2, read-out: FF-MAS) 136%; (HepG2, read-out: cholesterol) 12%; (HepG2, read-out: desmosterol) 10%; (HepG2, read-out: lanosterol) 94%; (HepG2, read-out: lathosterol) 54%; under setting [1], 155%. This compound also showed an FF-MAS (HepG2) of 1.36. The same compound displayed a cholesterol (HepG2) of 0.12. Moreover, the desmosterol (HepG2) was found to be 0.10. Besides, where the note is “HepG2”, the lanosterol is reported as 0.94. Further, the lathosterol (HepG2) was determined as 0.54. For the same compound, the “zymosterol+7-dehydrocholesterol” value (HepG2) is 1.55.
